These results are taken from paper PMC9291816 (Clinical Pharmacology and Therapeutics, 2021).

The nature of data set [1]: Clinical DDI study in healthy adults. It is filed as in vivo, human. As to conditions: for AUC(0-t) / Cmax: both, human, plasma, oral.
Data set [2] relates to CYP3A. Details: species or system human. As to conditions: refined to recover observed midazolam AUCR; 1/18 of the in vitro k inact.
Another data set relates to infants with Type 1 SMA. As to conditions: cited from earlier work.
The conditions of data set [3]: PBPK model; cited from earlier work.
For data set [4] the following is noted: cited from earlier work.
For data set [5], the system named is CYP3A. As to conditions: both, human, plasma, po, 2 mg, probe midazolam.

The AUC(0-t) is exposure summed from dosing to a finite time, without extrapolation to infinity. The Cmax is the maximum level reached in the sampled fluid or tissue.

On to `Cc1cn2nc(-c3cc(=O)n4cc(N5CCNC6(CC6)C5)ccc4n3)cc(C)c2n1` [risdiplam, Risdiplam], for which the tolerability entry in data set [1] (14 days, alone and coadministered with midazolam, healthy adults) was “well tolerated”. In data set [1] (5 mg), this molecule registered an AUC(0-t) of 1250 ng·h/mL and a maximum concentration (Cmax) of 78.6 ng/mL. In data set [1] (8 mg), this molecule showed an AUC(0-t) of 1730 ng·h/mL and a Cmax of 113 ng/mL. In addition, in the data set on CYP3A [2], the “in vivo k inact” value is on record as “in vivo k inact ^e = 0.22/hour”. Besides, in the data set on infants with Type 1 SMA, the “increase in the SMN protein” value was “approximately twofold”. For the same molecule, in data set [3], the “hepatic intrinsic CL via CYP3A share of clearance” value was 20%, the “hepatic intrinsic CL via FMO3 share of clearance” value is listed as 75% and the “renal CL (CLR) share of clearance” value is given as 5%.
Regarding `Cc1ncc2n1-c1ccc(Cl)cc1C(c1ccccc1F)=NC2` [midazolam], in data set [4] (adults), the “UGT1A4 contribution to clearance” value is on record as 1–2%. Also, the “FG (intestinal availability)” value in data set [4] is 0.55. In the data set on CYP3A [5], this molecule gave an exposure AUC(0-t) of 19.9 ng·h/mL and a Cmax of 7.65 ng/mL.
